The source of these data is patent US10576060B2, “FK506 derivative maintaining nerve regeneration activity without immunosuppressive activity, and use thereof” (INTRON BIOTECHNOLOGY CO., LTD, priority 2014, dated 2020).

Entries after “also recorded” stand apart in the source; their conditions may differ.

Assay [1] deals with CD3/CD28-activated human T-cells. Kind of assay: In vitro T-cell activity: interleukin-2 secretion by CD3/CD28-activated human T-cells. The class given is cell-based. To be noted: compound 0.1 nM, 16 to 20 hours. On the procedure: A relative immunosuppressive property of the compound compared to authentic FK506 was determined using T-lymphocytes as described in Mo, S. J. et al. (J. Am. Chem. Soc. 2011, 133, 976-985). Simply, interleukin-2 secretions were quantified after treating the compound (0.1 nM) with CD3/CD28-activated human T-cells with the compounds for 16 to 20 hours.
A relative immunosuppressive property of 31-O-demethyl-FK506 compared to authentic FK506 was determined using the same method as Example 3. (1).

The test system of assay [2] is rat pheochromocytoma cells (PC12). Briefly: Nerve regeneration activity: neurite outgrowth in NGF-treated PC12 cells. The assay is classed as cell-based. To be noted: 10 nM compound with NGF 10 ng/mL, 96 hours. On the procedure: A relative nerve regeneration activity of the compound, compared to authentic FK506, was determined using rat pheochromocytoma cells (PC12) by the method described in Mo, S. J. et al. (J. Am. Chem. Soc. 2011, 133, 976-985). The PC12 cells were treated with nerve growth factor (NGF; KOMA Biotech; 10 ng/mL) which induces neurite outgrowth for 96 hours. 10 nM of FK506 or 9-deoxo-prolyl-FK506 was treated together or excluded. The neurite lengths were measured on photographic prints by the method Revill, W. P. et al. described (J. Pharmacol. Exp. Ther. 2002, 302, 1278-1285).
A relative neuroregenerative property of 31-O-demethyl-FK506 compared to authentic FK506 was determined using the same method as Example 3. (2).
A relative nerve regeneration property of 9-deoxo-31-O-demethyl-FK506 compared to authentic FK506 was determined using the same method as Example 3. (2).

On to `C=CC[C@@H]1/C=C(\C)C[C@H](C)C[C@H](OC)[C@H]2O[C@@](O)(CC(=O)N3CCCC[C@H]3C(=O)O[C@H](/C(C)=C/[C@@H]3CC[C@@H](O)[C@H](O)C3)[C@H](C)[C@@H](O)CC1=O)[C@H](C)C[C@@H]2OC` [9-deoxo-31-O-demethyl-FK506], for which the “interleukin-2 secretion (immunosuppressive activity)” value (shortened to “interleukin-2 secretion”) in assay [1] is on record as “significantly increased to reach that of the normal group; also recorded: increased significantly to reach a normal level”. For the same molecule, in assay [2], the “neurite outgrowth promotion (neurite length)” value (“neurite outgrowth promotion” for short) is “excellent effect on neurite outgrowth promotion; also recorded: promotes neurite outgrowth in PC12 cells”.
For `C=CC[C@@H]1/C=C(\C)C[C@H](C)C[C@H](OC)[C@H]2O[C@@](O)(C(=O)C(=O)N3CCCC[C@H]3C(=O)O[C@H](/C(C)=C/[C@@H]3CC[C@@H](O)[C@H](O)C3)[C@H](C)[C@@H](O)CC1=O)[C@H](C)C[C@@H]2OC` [31-O-demethyl-FK506], the “interleukin-2 secretion” value in assay [1] was “significantly increased to reach that of the normal group; also recorded: increased significantly to reach a normal level”. Further, in assay [2], the “neurite outgrowth promotion” value is “excellent effect on neurite outgrowth promotion; also recorded: promotes neurite outgrowth in PC12 cells”.
`C=CC[C@@H]1/C=C(\C)C[C@H](C)C[C@H](OC)[C@H]2O[C@@](O)(CC(=O)N3CCC[C@H]3C(=O)O[C@H](/C(C)=C/[C@@H]3CC[C@@H](O)[C@H](OC)C3)[C@H](C)[C@@H](O)CC1=O)[C@H](C)C[C@@H]2OC` [9-deoxo-prolyl-FK506]: the “interleukin-2 secretion” value in assay [1] is on record as “significantly increased to reach that of the normal group; also recorded: increased significantly to reach a normal level”. In addition, the “neurite outgrowth promotion” value in assay [2] was “excellent effect on neurite outgrowth promotion; also recorded: promotes neurite outgrowth in PC12 cells”.
With `C=CC[C@@H]1/C=C(\C)C[C@H](C)C[C@H](OC)[C@H]2O[C@@](O)(C(=O)C(=O)N3CCCC[C@H]3C(=O)O[C@H](/C(C)=C/[C@@H]3CC[C@@H](O)[C@H](OC)C3)[C@H](C)[C@@H](O)CC1=O)[C@H](C)C[C@@H]2OC` [FK506], in assay [1], the “interleukin-2 secretion” value is “decreased as much as the number of CD3/CD28-inactivated human T-cells”.
